Experimental findings from patent US7728012B2, “Carboxamide compounds and their use as calpain inhibitors” (Abbott GmbH & Co. KG, priority 2006, dated 2010) are described below.

Holding throughout (assay type): biochemical
Assay [1] addresses T1, cathepsin B isolated from human liver (Homo sapiens, UniProt P07858).
T1 construct: cathepsin B—isolated from human liver; purchased Calbiochem 219362; host or cells: human liver (tissue isolate)
Nature of the assay: Cathepsin B kinetic fluorescence enzyme inhibition assay. As to conditions: selectivity ratio versus calpain I. The method in brief: (§1)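 Inhibition is measured at room temperature in cysteine-containing MES buffer, pH 6.0, by continuous fluorescence at 460 nm. Cathepsin S (0.5 nM) uses 20 μM Z-Val-Val-Arg-AMC; L (1 nM) and B (0.25 nM) use Z-Phe-Arg-AMC at 2 and 100 μM respectively.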

The target of assay [2] is T2, cathepsin K activated from recombinant human procathepsin K (Homo sapiens, UniProt P43235).
T2 construct: purchased Calbiochem 342001; host or cells: E. coli
T2 sequence (P43235 115-329): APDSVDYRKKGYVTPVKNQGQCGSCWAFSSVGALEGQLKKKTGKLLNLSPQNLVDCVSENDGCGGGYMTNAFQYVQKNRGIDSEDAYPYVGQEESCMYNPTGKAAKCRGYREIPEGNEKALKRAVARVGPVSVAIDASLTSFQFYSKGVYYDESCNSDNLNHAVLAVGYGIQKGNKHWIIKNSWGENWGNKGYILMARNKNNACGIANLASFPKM
Nature of the assay: Cathepsin K kinetic fluorescence enzyme inhibition assay. The following applies: selectivity ratio versus calpain I.

For assay [3], the target named is T3, calpain-I isolated from human erythrocytes (Homo sapiens, UniProt P07384).
T3 construct: calpain-I—isolated from human erythrocytes; purchased Calbiochem 208713; host or cells: human erythrocytes (tissue isolate)
T3 sequence (P07384 1-714): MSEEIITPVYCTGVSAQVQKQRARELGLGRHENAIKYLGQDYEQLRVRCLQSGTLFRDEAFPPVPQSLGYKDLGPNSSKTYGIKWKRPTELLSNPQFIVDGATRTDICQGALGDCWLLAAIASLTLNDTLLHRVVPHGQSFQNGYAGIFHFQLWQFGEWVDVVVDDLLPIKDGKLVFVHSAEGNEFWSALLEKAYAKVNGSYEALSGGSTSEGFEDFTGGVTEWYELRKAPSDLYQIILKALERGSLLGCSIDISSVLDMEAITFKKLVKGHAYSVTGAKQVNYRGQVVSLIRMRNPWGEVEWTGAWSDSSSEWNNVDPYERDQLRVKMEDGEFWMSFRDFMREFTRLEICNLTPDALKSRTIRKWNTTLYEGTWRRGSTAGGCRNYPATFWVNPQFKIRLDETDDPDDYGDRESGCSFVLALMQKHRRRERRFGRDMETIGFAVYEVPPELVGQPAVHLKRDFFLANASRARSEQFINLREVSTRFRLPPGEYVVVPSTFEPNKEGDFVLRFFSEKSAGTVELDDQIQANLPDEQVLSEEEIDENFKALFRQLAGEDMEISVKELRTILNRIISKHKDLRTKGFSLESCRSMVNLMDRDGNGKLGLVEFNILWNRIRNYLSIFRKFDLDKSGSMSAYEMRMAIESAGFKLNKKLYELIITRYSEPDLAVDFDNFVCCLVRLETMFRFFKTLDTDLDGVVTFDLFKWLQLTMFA
T3 sequence (P04632 1-268 partner): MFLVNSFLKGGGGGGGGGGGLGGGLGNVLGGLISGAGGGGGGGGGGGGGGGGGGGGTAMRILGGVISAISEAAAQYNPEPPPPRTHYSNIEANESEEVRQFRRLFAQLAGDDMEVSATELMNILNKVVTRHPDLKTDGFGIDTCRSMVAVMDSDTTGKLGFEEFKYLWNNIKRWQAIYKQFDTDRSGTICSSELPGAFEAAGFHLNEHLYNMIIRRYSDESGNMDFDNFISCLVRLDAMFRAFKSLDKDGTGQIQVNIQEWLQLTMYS
As to the kind of experiment: Calpain I kinetic fluorescence enzyme inhibition assay. The following applies: apparent Ki from IC50 by Cheng-Prussoff; average of 2 to 4 dose-effect plots.

For assay [4], the target named is T4, recombinant human cathepsin S (Homo sapiens, UniProt P25774).
T4 construct: purchased Calbiochem 219343; host or cells: E. coli
T4 sequence (P25774 115-331): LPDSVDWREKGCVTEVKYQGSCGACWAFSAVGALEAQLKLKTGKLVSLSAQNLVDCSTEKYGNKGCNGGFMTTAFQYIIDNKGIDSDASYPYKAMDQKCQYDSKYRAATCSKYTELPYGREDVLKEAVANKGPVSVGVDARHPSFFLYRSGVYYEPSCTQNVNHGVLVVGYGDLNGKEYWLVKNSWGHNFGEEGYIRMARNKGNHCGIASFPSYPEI
Nature of the assay: Cathepsin S kinetic fluorescence enzyme inhibition assay. The following applies: selectivity ratio versus calpain I. The method, boiled down: as §1

Assay [5] deals with T5, cathepsin L isolated from human liver (Homo sapiens, UniProt P07711).
T5 construct: cathepsin L—isolated from human liver; purchased Calbiochem 219402; host or cells: human liver (tissue isolate)
T5 sequence (P07711 114-333): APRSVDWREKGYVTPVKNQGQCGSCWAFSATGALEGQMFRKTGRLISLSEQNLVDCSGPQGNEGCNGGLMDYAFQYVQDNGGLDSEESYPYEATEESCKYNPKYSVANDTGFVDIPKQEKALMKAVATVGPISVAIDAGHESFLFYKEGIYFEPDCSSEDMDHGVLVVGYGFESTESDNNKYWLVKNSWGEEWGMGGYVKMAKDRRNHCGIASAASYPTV
Nature of the assay: Cathepsin L kinetic fluorescence enzyme inhibition assay. The following applies: selectivity ratio versus calpain I. The method in brief:
as §1

`NC(=O)C(=O)C(Cc1ccccc1)NC(=O)c1cccnc1-n1ccc(-c2ccccc2)n1` (centres unmarked) [Example 5, N-(3-Amino-1-benzyl-2,3-dioxopropyl)-2-(3-phenyl-1H-pyrazol-1-yl)nicotinamide]: the “Sel cat. B (Ki(cathepsin B)/Ki(calpain) ratio)” value in assay [1] is reported as “+ (10≦Ki(cathepsin B)/Ki(calpain)<30)”. In addition, the “Sel cat. K (Ki(cathepsin K)/Ki(calpain) ratio)” value in assay [2] is on record as “+ (10≦Ki(cathepsin K)/Ki(calpain)<30)”. In addition, the Ki in assay [3] was not above 40 nM. Also, the “Sel cat. S (Ki(cathepsin S)/Ki(calpain) ratio)” value in assay [4] is recorded as “++ (Ki(cathepsin S)/Ki(calpain) ratio of ≧100)”. In addition, in assay [5], the “Sel cat. L (Ki(cathepsin L)/Ki(calpain) ratio)” value is “++ (Ki(cathepsin L)/Ki(calpain) ratio of ≧50)”.

Turning to `NC(=O)C(=O)C(Cc1ccccc1)NC(=O)c1cccnc1-n1ccc(-c2sccc2Cl)n1` (centres unmarked) [Example 109, N-[3-Amino-2,3-dioxo-1-(phenylmethyl)propyl]-2-[3-(3-chloro-2-thienyl)-1H-pyrazol-1-yl]pyridine-3-carboxamide], the “Sel cat. B (Ki(cathepsin B)/Ki(calpain) ratio)” value in assay [1] is on record as “++ (Ki(cathepsin B)/Ki(calpain) ratio of ≧30)”. Moreover, the “Sel cat. K (Ki(cathepsin K)/Ki(calpain) ratio)” value in assay [2] is on record as “++ (Ki(cathepsin K)/Ki(calpain) ratio of ≧30)”. Also, the Ki in assay [3] is not above 40 nM. Besides, in assay [4], the “Sel cat. S (Ki(cathepsin S)/Ki(calpain) ratio)” value is given as “++ (Ki(cathepsin S)/Ki(calpain) ratio of ≧100)”. Besides, in assay [5], the “Sel cat. L (Ki(cathepsin L)/Ki(calpain) ratio)” value is recorded as “++ (Ki(cathepsin L)/Ki(calpain) ratio of ≧50)”.

As for `NC(=O)C(=O)C(Cc1ccccc1)NC(=O)c1cccnc1-n1ccc(-c2ccccc2OC(F)(F)F)n1` (centres unmarked) [Example 124, N-[3-Amino-2,3-dioxo-1-(phenylmethyl)propyl]-2-(3-{2-[(trifluoromethyl)oxy]phenyl}-1H-pyrazol-1-yl)pyridine-3-carboxamide], the “Sel cat. B (Ki(cathepsin B)/Ki(calpain) ratio)” value in assay [1] was “++ (Ki(cathepsin B)/Ki(calpain) ratio of ≧30)”. In addition, the “Sel cat. K (Ki(cathepsin K)/Ki(calpain) ratio)” value in assay [2] was “++ (Ki(cathepsin K)/Ki(calpain) ratio of ≧30)”. In assay [3], the Ki is not above 40 nM. Further, the “Sel cat. S (Ki(cathepsin S)/Ki(calpain) ratio)” value in assay [4] is listed as “++ (Ki(cathepsin S)/Ki(calpain) ratio of ≧100)”. For the same compound, in assay [5], the “Sel cat. L (Ki(cathepsin L)/Ki(calpain) ratio)” value was “++ (Ki(cathepsin L)/Ki(calpain) ratio of ≧50)”.

For `NC(=O)C(=O)C(Cc1ccccc1)NC(=O)c1cccnc1-n1ccc(-c2ccc(Cl)s2)n1` (centres unmarked) [Example 103, N-[3-Amino-2,3-dioxo-1-(phenylmethyl)propyl]-2-[3-(5-chloro-2-thienyl)-1H-pyrazol-1-yl]pyridine-3-carboxamide], the “Sel cat. B (Ki(cathepsin B)/Ki(calpain) ratio)” value in assay [1] is listed as “+ (10≦Ki(cathepsin B)/Ki(calpain)<30)”. Further, the “Sel cat. K (Ki(cathepsin K)/Ki(calpain) ratio)” value in assay [2] is listed as “+ (10≦Ki(cathepsin K)/Ki(calpain)<30)”. The Ki in assay [3] was not above 40 nM. The “Sel cat. S (Ki(cathepsin S)/Ki(calpain) ratio)” value in assay [4] was “++ (Ki(cathepsin S)/Ki(calpain) ratio of ≧100)”. For the same compound, the “Sel cat. L (Ki(cathepsin L)/Ki(calpain) ratio)” value in assay [5] was “++ (Ki(cathepsin L)/Ki(calpain) ratio of ≧50)”.

For `COc1ccc(CC(NC(=O)c2cccnc2-n2ccc(-c3ccc(Cl)cc3Cl)n2)C(=O)C(N)=O)cc1` (centres unmarked) [Example 98, N-(3-Amino-1-{[4-(methyloxy)phenyl]methyl}-2,3-dioxopropyl)-2-[3-(2,4-dichlorophenyl)-1H-pyrazol-1-yl]pyridine-3-carboxamide], the “Sel cat. B (Ki(cathepsin B)/Ki(calpain) ratio)” value in assay [1] is recorded as “++ (Ki(cathepsin B)/Ki(calpain) ratio of ≧30)”. The “Sel cat. K (Ki(cathepsin K)/Ki(calpain) ratio)” value in assay [2] is “++ (Ki(cathepsin K)/Ki(calpain) ratio of ≧30)”. Moreover, the Ki in assay [3] was not above 40 nM. In assay [4], the “Sel cat. S (Ki(cathepsin S)/Ki(calpain) ratio)” value is recorded as “++ (Ki(cathepsin S)/Ki(calpain) ratio of ≧100)”. Further, the “Sel cat. L (Ki(cathepsin L)/Ki(calpain) ratio)” value in assay [5] is on record as “++ (Ki(cathepsin L)/Ki(calpain) ratio of ≧50)”.

`NC(=O)C(=O)C(Cc1ccccc1)NC(=O)c1cccnc1-n1ccc(-c2cc(C(F)(F)F)ccc2CN2CCOCC2)n1` (centres unmarked) [Example 163, N-[3-Amino-2,3-dioxo-1-(phenylmethyl)propyl]-2-{3-[2-(morpholin-4-ylmethyl)-5-(trifluoromethyl)phenyl]-1H-pyrazol-1-yl}pyridine-3-carboxamide]: the “Sel cat. B (Ki(cathepsin B)/Ki(calpain) ratio)” value in assay [1] is recorded as “+ (10≦Ki(cathepsin B)/Ki(calpain)<30)”. Also, the “Sel cat. K (Ki(cathepsin K)/Ki(calpain) ratio)” value in assay [2] is “+ (10≦Ki(cathepsin K)/Ki(calpain)<30)”. Also, the Ki in assay [3] lay in the range of 40 to 100 nM. Moreover, the “Sel cat. S (Ki(cathepsin S)/Ki(calpain) ratio)” value in assay [4] is reported as “++ (Ki(cathepsin S)/Ki(calpain) ratio of ≧100)”. For the same compound, the “Sel cat. L (Ki(cathepsin L)/Ki(calpain) ratio)” value in assay [5] was “+ (30≦Ki(cathepsin L)/Ki(calpain)<50)”.

As to `NC(=O)C(=O)C(Cc1ccccc1)NC(=O)c1cccnc1-n1ccc(-c2ccc(F)cc2Cl)n1` (centres unmarked) [Example 71, N-(3-Amino-1-benzyl-2,3-dioxopropyl)-2-[3-(2-chloro-4-fluorophenyl)-1H-pyrazol-1-yl]nicotinamide], the “Sel cat. B (Ki(cathepsin B)/Ki(calpain) ratio)” value in assay [1] was “++ (Ki(cathepsin B)/Ki(calpain) ratio of ≧30)”. The “Sel cat. K (Ki(cathepsin K)/Ki(calpain) ratio)” value in assay [2] is “++ (Ki(cathepsin K)/Ki(calpain) ratio of ≧30)”. Also, in assay [3], the Ki fell in the range of 40 to 100 nM. The “Sel cat. S (Ki(cathepsin S)/Ki(calpain) ratio)” value in assay [4] is on record as “++ (Ki(cathepsin S)/Ki(calpain) ratio of ≧100)”. Besides, the “Sel cat. L (Ki(cathepsin L)/Ki(calpain) ratio)” value in assay [5] is given as “++ (Ki(cathepsin L)/Ki(calpain) ratio of ≧50)”.

Regarding `NC(=O)C(=O)C(Cc1ccc(F)cc1)NC(=O)c1cccnc1-n1ccc(-c2ccc(Cl)cc2Cl)n1` (centres unmarked) [Example 114, N-{-3-Amino-1-[(4-fluorophenyl)methyl]-2,3-dioxopropyl}-2-[3-(2,4-dichlorophenyl)-1H-pyrazol-1-yl]pyridine-3-carboxamide], the “Sel cat. B (Ki(cathepsin B)/Ki(calpain) ratio)” value in assay [1] was “++ (Ki(cathepsin B)/Ki(calpain) ratio of ≧30)”. Also, the “Sel cat. K (Ki(cathepsin K)/Ki(calpain) ratio)” value in assay [2] is “++ (Ki(cathepsin K)/Ki(calpain) ratio of ≧30)”. The Ki in assay [3] is 40 to 100 nM. Also, the “Sel cat. S (Ki(cathepsin S)/Ki(calpain) ratio)” value in assay [4] was “++ (Ki(cathepsin S)/Ki(calpain) ratio of ≧100)”. Moreover, the “Sel cat. L (Ki(cathepsin L)/Ki(calpain) ratio)” value in assay [5] is “++ (Ki(cathepsin L)/Ki(calpain) ratio of ≧50)”.

In the case of `NC(=O)C(=O)C(Cc1ccccc1)NC(=O)c1cccnc1-n1ccc(-c2ccc(N3CCOCC3)cc2Cl)n1` (centres unmarked) [Example 99, N-[3-Amino-2,3-dioxo-1-(phenylmethyl)propyl]-2-[3-(2-chloro-4-morpholin-4-ylphenyl)-1H-pyrazol-1-yl]pyridine-3-carboxamide], the “Sel cat. B (Ki(cathepsin B)/Ki(calpain) ratio)” value in assay [1] was “++ (Ki(cathepsin B)/Ki(calpain) ratio of ≧30)”. Moreover, in assay [2], the “Sel cat. K (Ki(cathepsin K)/Ki(calpain) ratio)” value was “++ (Ki(cathepsin K)/Ki(calpain) ratio of ≧30)”. In assay [3], the Ki was not above 40 nM. For the same compound, the “Sel cat. S (Ki(cathepsin S)/Ki(calpain) ratio)” value in assay [4] is “++ (Ki(cathepsin S)/Ki(calpain) ratio of ≧100)”. In assay [5], the “Sel cat. L (Ki(cathepsin L)/Ki(calpain) ratio)” value is listed as “++ (Ki(cathepsin L)/Ki(calpain) ratio of ≧50)”.

As to `NC(=O)C(=O)C(Cc1ccccc1)NC(=O)c1cccnc1-n1ccc(-c2ccc(Cl)cc2Cl)n1` (centres unmarked) [Example 79, N-(3-Amino-1-benzyl-2,3-dioxopropyl)-2-[3-(2,4-dichlorophenyl)-1H-pyrazol-1-yl]nicotinamide], the “Sel cat. B (Ki(cathepsin B)/Ki(calpain) ratio)” value in assay [1] is recorded as “++ (Ki(cathepsin B)/Ki(calpain) ratio of ≧30)”. In addition, the “Sel cat. K (Ki(cathepsin K)/Ki(calpain) ratio)” value in assay [2] is listed as “++ (Ki(cathepsin K)/Ki(calpain) ratio of ≧30)”. For the same compound, the Ki in assay [3] lay in the range of 40 to 100 nM. Besides, the “Sel cat. S (Ki(cathepsin S)/Ki(calpain) ratio)” value in assay [4] was “++ (Ki(cathepsin S)/Ki(calpain) ratio of ≧100)”. The “Sel cat. L (Ki(cathepsin L)/Ki(calpain) ratio)” value in assay [5] is reported as “++ (Ki(cathepsin L)/Ki(calpain) ratio of ≧50)”.
